Data as given in patent US20070270436A1, “NOVEL AMINO- AND IMINO-ALKYLPIPERAZINES” (Recordati Ireland Limited, priority 2006, published 2007).
Read-outs that look alike come from different tables or passages of the source.

Legend:
5-HT1A receptors = molecular target: T1, 5-HT1A receptors (Rattus norvegicus, UniProt P19327); test: Inhibition of serotonergic syndrome (forepaw treading) induced by 8-OH-DPAT in rats (post-synaptic antagonism); format: in vivo; conditions: for inhibition at 10 mg/kg: rat
T1 construct: from tissue; host or cells: living male Sprague-Dawley rats (whole animal, behavioural read-out)
T1 sequence (P19327 1-422): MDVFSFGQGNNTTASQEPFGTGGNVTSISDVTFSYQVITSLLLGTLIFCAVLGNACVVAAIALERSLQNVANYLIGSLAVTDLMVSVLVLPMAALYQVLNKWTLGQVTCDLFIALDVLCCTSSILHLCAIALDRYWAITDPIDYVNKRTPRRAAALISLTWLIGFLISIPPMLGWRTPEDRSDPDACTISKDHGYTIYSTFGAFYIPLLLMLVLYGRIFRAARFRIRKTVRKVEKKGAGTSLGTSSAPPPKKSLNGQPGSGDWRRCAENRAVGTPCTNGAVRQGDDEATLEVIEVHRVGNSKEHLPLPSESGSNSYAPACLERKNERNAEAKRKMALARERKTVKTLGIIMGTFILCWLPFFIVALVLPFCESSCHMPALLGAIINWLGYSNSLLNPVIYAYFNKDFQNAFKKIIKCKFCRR
Description: The inhibitory effect of 5-HT1A-receptor antagonists on stereotyped forepaw treading induced in rats by subcutaneous injection of 8-OH-DPAT was evaluated by the method of Tricklebank (Tricklebank et al., Eur. J. Pharmacol., 117: 15, 1985) with minor modifications as described below.
Male Sprague-Dawley rats [Crl: CD® (SD) IGS BR] weighing 150-175 g from Charles River Italia were used. The animals were housed with free access to food and water and maintained on a forced 12-hour-light/12-hour-dark cycle at 22-24° C. of temperature. On the day of the experiment, the rats were placed singly in clear plastic containers, 10-15 minutes before oral administration of the vehicle or compounds to be tested. For evaluation of antagonistic activity, the compounds were administered 1 and 4 hours before induction of stereotypy by 8-OH-DPAT (1 mg/kg subcutaneously). Observation sessions lasted 30 seconds and began 3 minutes after 8-OH-DPAT treatment and were repeated every 3 minutes over a period of 15 minutes.
The appearance of the symptoms induced by postsynaptic stimulation of 5-HT1A receptors was noted, and the intensity was scored using an intensity scale in which: 0=absent, 1=equivocal, 2=present and 3=intense. Behavioural scores for treated rats were accumulated throughout the observation time (5 observation periods) and expressed as mean values of 4 rats/dose. Change in mean values of treated animals in comparison with control (vehicle) group, expressed as per-cent inhibition, was used to quantify the antagonistic activity.
In order to quantitate the potency of the compound of Example 24 in inhibiting the stereotypy (forepaw treading) induced by 8-OH-DPAT, an ED50 value (dose inhibiting by 50% the forepaw treading) was evaluated by means of linear regression using the least square method.

urinary bladder = test: Cystometric parameters in conscious rats after oral administration; format: in vivo, rat; conditions: 3 mg/kg p.o., 1-5 h after treatment
Description: Male Sprague-Dawley rats [Crl: CD® (SD) IGS BR] of 300-400 g body weight supplied by Charles River Italia were used. The animals were housed with free access to food and water and maintained on a forced 12-hour-light/12-hour-dark cycle at 22-24° C. of temperature, except during the experiment. To quantify urodynamic parameters in conscious rats, cystometrographic studies were performed according to the procedure previously reported (Guarneri et al., Pharmacol. Res. 24: 175, 1991).
Briefly, the rats were anaesthetised by intraperitoneal administration of 3 ml/kg of Equithensin solution (pentobarbital 30 mg/kg and chloral hydrate 125 mg/kg) and placed in a supine position. An approximately 10 mm-long midline incision was made in the shaved and cleaned abdominal wall. The urinary bladder was gently freed from adhering tissues, emptied and then cannulated via an incision in the bladder body, using a polyethylene cannula (0.58-mm internal diameter, 0.96-mm external diameter) which was permanently sutured with silk thread. The cannula was exteriorised through a subcutaneous tunnel in the retroscapular area, where it was connected to a plastic adapter in order to avoid the risk of removal by the animal. For drug testing, the rats were utilised one day after implantation.
On the day of the experiment, the rats were placed in modified Bollman cages, i.e., restraining cages that were large enough to permit the rats to adopt a normal crouched posture, but narrow enough to prevent turning around. After a stabilisation period of about 20 minutes, the free tip of the bladder cannula was connected through a T-shaped tube to a pressure transducer (Statham P23XL) and to a peristaltic pump (Gilson minipuls 2) for continues infusion of a warm (37° C.) saline solution into the urinary bladder, at a constant rate of 0.1 ml/minute. The intraluminal-pressure signal during infusion of saline into the bladder was continuously recorded on a polygraph (Rectigraph-8K San-ei with BM614/2 amplifier from Biomedica Mangoni). The cystometrogram was used to evaluate the urodynamic parameters of bladder volume capacity (BVC) and micturition pressure (MP). BVC (ml) is defined as the volume of saline infused into the bladder necessary to induce detrusor contraction followed by micturition. MP (mmHg) is defined as the maximal intravesical pressure caused by contraction during micturition. Basal BVC and MP values were evaluated as mean of the values observed in the cystometrograms recorded in an initial period of 30-60 minutes. Following determination of basal BVC and MP, the infusion was interrupted and the test compounds were administered orally by a stomach tube. Bladder infusion was resumed and changes in BVC and MP were evaluated from the mean values obtained in the cystometrograms observed during 1, 2, 3, 4 and 5 hours after treatment. Compounds were administered in a volume of 2 ml/kg and groups of control animals received the same amount of vehicle (0.5% methocel in water) orally.
Data were expressed as mean ±standard error. The percent changes of BVC and MP versus the basal values, as well as Δ values (difference in ml or mmHg) of BVC and MP (BVC or MP at time “x” minus basal value), were also evaluated for each rat/time. In the figures, data were reported as % changes versus basal values.
Statistical analysis on BVC and MP values, as well as on Δ values, was performed by S.A.S./STAT software, version 6.12. The observed differences between vehicle (control) and test treatments were evaluated on Δ values of BVC and MP, whereas the differences between the values at different times versus basal values were analyzed on original BVC and MP data.

| % Inhibition of forepaw treading, 1 h (5-HT1A receptors; 10 mg/kg p.o., 1 h before 8-OH-DPAT 1 mg/kg s.c.) [%] | % Inhibition of forepaw treading, 4 h (5-HT1A receptors; 10 mg/kg p.o., 4 h before 8-OH-DPAT 1 mg/kg s.c.) [%] | ED50 (dose inhibiting by 50% the forepaw treading) (95% CL), 1 hour (5-HT1A receptors; 1 hour after oral administration) | ED50 (dose inhibiting by 50% the forepaw treading) (95% CL), 4 hours (5-HT1A receptors; 4 hours after oral administration) | inhibition at 10 mg/kg (5-HT1A receptors; 10 mg/kg p.o., 1 h before 8-OH-DPAT 1 mg/kg s.c., read-out: % Inhibition of forepaw treading, 1 h) [%] | inhibition at 10 mg/kg (5-HT1A receptors; 10 mg/kg p.o., 4 h before 8-OH-DPAT 1 mg/kg s.c., read-out: % Inhibition of forepaw treading, 4 h) [%] | SMILES | bladder volume capacity (BVC) (urinary bladder) | micturition pressure (MP) (urinary bladder) |
| --- | --- | --- | --- | --- | --- | --- | --- | --- |
| 80 | 69 |  |  |  |  | COc1ccccc1N1CCN(CCC(c2ccccc2F)C(C2CCCCC2)N(C)C(C)=O)CC1 (racemic) [Example 16, (RS,SR)- and (RS,RS)-N-{-1-Cyclohexyl-2-(2-fluorophenyl)-4-[4-(2-methoxyphenyl)piperazin-1-yl]butyl}-N-methylacetamide] | effective in increasing | without significant effects |
|  |  | 2.86 (2.12-3.8) mg/kg p.o. | 3.67 (2.81-4.93) mg/kg p.o. | 100 | 90 | COc1ccccc1N1CCN(CC[C@@H](c2ccccc2F)[C@H](NC(=S)N(C)C)C2CCCCC2)CC1 (racemic) [Example 24, 3-{(RS,SR)-1-Cyclohexyl-2-(2-fluorophenyl)-4-[4-(2-methoxyphenyl)-piperazin-1-yl]butyl}-1,1-dimethylthiourea] | significantly increased | slight but significant reduction |
